Results on five molecules are retold here after PMC8698377, “In Vitro Hepatic Assessment of Cineole and Its Derivatives in Common Brushtail Possums (Trichosurus vulpecula) and Rodents” (Biology, 2021).

Each structure is given as a SMILES string.

The subject of data set [1] is UGT. Briefly: p-nitrophenol glucuronidation, mouse hepatic microsomes. The format is in vitro ADME. On the procedure:
(§1) Microsomal preparation was as previously outlined. Individual livers were placed in beakers containing 1.15% KCl. All the procedures were carried out at 0–4 °C. The liver samples were minced and homogenised in buffer A (0.1 M Tris, 0.1 M potassium chloride, 1 mM EDTA, and 20 μM butylated hydroxytoluene, at pH = 7.4) using the Teflon-glass homogeniser (5–6 vertical passes). The samples were centrifuged for 20 min at 10,000× g. The supernatant was then transferred into another set of centrifuge tubes and spun for 60 min at 100,000× g. The pellet was resuspended in Buffer B (0.1 M potassium pyrophosphate, 1 mM EDTA, and 20 μM butylated hydroxytoluene, at pH = 7.4), homogenised and recentrifuged for 60 min at 100,000× g. Finally, the pellet was homogenised in 1–2 mL of Buffer C (10 mM Tris-HCl, 1 mM EDTA, and 4% glycerol (v/v)) and stored at […] until used. The protein concentration of the microsomes was determined using the Bicinchoninic acid (BCA) method.
(§2) The rate of p-nitrophenol glucuronidation was determined as previously reported. In short, the incubation mixture (500 µL in total) contained; 100 µL of 1 mg/mL microsomes, 50 µL of 1 M Tris-HCl (pH = 7.4), 20 µL of 0.25% (v/v) Triton-X 100, 50 µL of 50 mM MgCl2, 130 µL of double distilled water, 50 µL of 5 mM p-nitrophenol, 50 µL of the test compound, and 50 µL of uridine 5′-diphosphoglucuronic acid trisodium salt (UDPGA). The blank tubes had all components except UDPGA and microsomes; instead, 150 µL of 0.1 M phosphate buffer was added to equal the volume as the reaction mixture. The reaction mixture and the blank were incubated at 37 °C for 2 min. Then, 50 µL of 30 mM UDPGA was added to initiate the reaction which proceeded at 37 °C for 30 min (optimised incubation time). The reaction was stopped using 1 mL of 5% trichloroacetic acid (TCA). The tubes were centrifuged at 1800 g for 10 min and then 1 mL of supernatant was added to 250 µL of 2 M sodium hydroxide (NaOH). The absorbance was read at 405 nm. The sample reading was subtracted from the blank absorbance and divided by the extinction coefficient of p-nitrophenol ([…]) and the light path of the spectrophotometer (1 cm). The glucuronidation activities are expressed in µmol/mg/min and are the mean ± SEM of 3 independent experiments conducted in duplicate.

In data set [2] the test system is UGT. Nature of the data set: p-nitrophenol glucuronidation, rat hepatic microsomes. Format: in vitro ADME. On the procedure:
as §1, §2

Data set [3] concerns CYP3A. Briefly: CYP3A catalytic activity (erythromycin-N-demethylation), rat hepatic microsomes. Format: in vitro ADME. To be noted: for activity at 30 min, 12.5 µM / activity at 30 min, 25 µM: liver microsomes, pH 7.4, probe erythromycin, read-out: CYP3A catalytic activity, % of Control. As to the method: as §1
(§3) CYP3A catalytic activity was determined using the erythromycin-N-demethylation activity assay as described previously. The reaction mixture (final volume of 1 mL and final protein concentration of 1 mg) contained 500 µL of microsomes in 0.1 M phosphate buffer (pH = 7.4), 400 µL of erythromycin buffer (0.45 mM), and 50 µL of the test compound was pre-warmed at 37 °C for 2 min. The reaction was initiated with 50 µL of 2.5 mM […] and incubated at 37 °C for 30 min (optimised incubation time). The reaction was stopped with the addition of 330 µL of 15% zinc sulphate. Tubes were vortexed and left for 5 min (at room temperature) and then 330 µL of saturated barium hydroxide was added. Tubes were further vortexed and left for 5 min (at room temperature). Tubes were then centrifuged at 1800 g for 10 min. To 830 µL of the supernatant, 330 µL of Nash reagent (30% (w/v) ammonium acetate, 0.4% (v/v) acetyl acetone) was added and further incubated at 60 °C for 30 min. The blank tube contained 330 µL of Nash reagent and 830 µL of Milli-Q-water. The tubes were centrifuged again at 1800× g for 10 min and the absorbance was read at 415 nm. Results presented are the mean ± SEM of 3 independent experiments conducted in duplicate.
In general terms: Liver microsomes are a subcellular fraction often used to study metabolism.

For data set [4], the system named is UGT. Nature of the data set: p-nitrophenol glucuronidation, possum hepatic microsomes. The format is in vitro ADME, possum (Trichosurus vulpecula). As to the method:
as §1, §2

In data set [5] the test system is CYP3A. Nature of the data set: CYP3A catalytic activity (erythromycin-N-demethylation), possum hepatic microsomes. The format is in vitro ADME, possum (Trichosurus vulpecula). Conditions: for activity at 30 min, 12.5 µM / activity at 30 min, 25 µM: possum (Trichosurus vulpecula), liver microsomes, pH 7.4, probe erythromycin, read-out: CYP3A catalytic activity, % of Control. As to the method: as §1, §3

The subject of data set [6] is CYP3A. Nature of the data set: CYP3A catalytic activity (erythromycin-N-demethylation), mouse hepatic microsomes. The format is in vitro ADME. Conditions: for activity at 30 min, 12.5 µM / activity at 30 min, 25 µM: liver microsomes, pH 7.4, probe erythromycin, read-out: CYP3A catalytic activity, % of Control. As to the method: as §1, §3

Regarding `CC1(O)CCC(C(C)(C)O)CC1` (stereo in doubt) [Trans-terpin, trans-terpin], the p-nitrophenol glucuronidation activity amounted to 2.44 ± 0.06 µmol/mg/min in data set [1] (12.5 µM); 2.33 ± 0.07 µmol/mg/min in data set [1] (25 µM); 2.87 ± 0.22 µmol/mg/min in data set [2] (12.5 µM); 2.50 ± 0.10 µmol/mg/min in data set [2] (25 µM); 3.90 ± 0.34 µmol/mg/min in data set [4] (12.5 µM); 3.91 ± 0.34 µmol/mg/min in data set [4] (25 µM). In addition, the “p-nitrophenol glucuronidation, % of Control” value came to 101.67 ± 0.74% in data set [1] (12.5 µM); 97.15 ± 1.80% in data set [1] (25 µM); 104.14 ± 9.44% in data set [2] (12.5 µM); 90.51 ± 3.63% in data set [2] (25 µM); 99.53 ± 0.84% in data set [4] (12.5 µM); 99.77 ± 0.60% in data set [4] (25 µM). The CYP3A catalytic activity in data set [3] (12.5 µM) turned out to be 0.59 ± 0.04 nmol/mg/min; in data set [3] (25 µM), 0.60 ± 0.06 nmol/mg/min; in data set [5] (12.5 µM), 0.41 ± 0.02 nmol/mg/min; in data set [5] (25 µM) it was 0.40 ± 0.03 nmol/mg/min; in data set [6] (12.5 µM), 0.71 ± 0.03 nmol/mg/min; in data set [6] (25 µM) it was 0.70 ± 0.03 nmol/mg/min. Moreover, the activity at 30 min, 12.5 µM in data set [3] (12.5 µM) came to 98.3 ± 3.1%; in data set [5] (12.5 µM), 106 ± 1.42%; in data set [6] (12.5 µM), 101 ± 2.7%. Also, the activity at 30 min, 25 µM in data set [3] (25 µM) was 99.3 ± 1%; in data set [5] (25 µM), 103 ± 6.11%; in data set [6] (25 µM), 99.64 ± 0.93%.

Turning to `OC(Cn1cncn1)(Cn1cncn1)c1ccc(F)cc1F` [fluconazole, reference compound], the “decrease of hepatic p-nitrophenol glucuronidation” value in data set [1] (2.5 mM, positive control) came out at 20 percent control.

In the case of `O=C(O)C1CC2C=CC1O2` (stereo not shown) [7-oxabicyclo[2.2.1]-hept-5-ene-2-carboxylic acid], the p-nitrophenol glucuronidation activity in data set [1] (12.5 µM) worked out at 3.46 ± 0.04 µmol/mg/min; in data set [1] (25 µM), 3.26 ± 0.09 µmol/mg/min; in data set [2] (12.5 µM), 2.87 ± 0.07 µmol/mg/min; in data set [2] (25 µM), 2.75 ± 0.06 µmol/mg/min; in data set [4] (12.5 µM) it was 4.02 ± 0.09 µmol/mg/min; in data set [4] (25 µM), 3.99 ± 0.09 µmol/mg/min. In addition, the “p-nitrophenol glucuronidation, % of Control” value was found to be 101.00 ± 0.64% in data set [1] (12.5 µM); 95.53 ± 4.50% in data set [1] (25 µM); 102.50 ± 2.98% in data set [2] (12.5 µM); 98.20 ± 1.42% in data set [2] (25 µM); 99.13 ± 1.29% in data set [4] (12.5 µM); 98.49 ± 0.83% in data set [4] (25 µM). Further, the CYP3A catalytic activity came to 0.48 ± 0.06 nmol/mg/min in data set [3] (12.5 µM); 0.51 ± 0.04 nmol/mg/min in data set [3] (25 µM); 0.41 ± 0.02 nmol/mg/min in data set [5] (12.5 µM); 0.40 ± 0.02 nmol/mg/min in data set [5] (25 µM); 0.67 ± 0.01 nmol/mg/min in data set [6] (12.5 µM); 0.66 ± 0.03 nmol/mg/min in data set [6] (25 µM). Besides, the activity at 30 min, 12.5 µM in data set [3] (12.5 µM) is 107 ± 5.87%; in data set [5] (12.5 µM) it was 106 ± 7.47%; in data set [6] (12.5 µM), 103 ± 2.77%. Besides, the figures for the activity at 30 min, 25 µM in data set [3] (25 µM), in data set [5] (25 µM) and in data set [6] (25 µM) were 114 ± 3.17%, 103 ± 1.09% and 103 ± 3.52%, respectively.

For `C[C@]12CC(=O)C[C@@]1(C)CC(=O)C2` [cis-1,5-dimethylbicyclo[3.3.0]octane-3,7-dione], the p-nitrophenol glucuronidation activity was 2.56 ± 0.11 µmol/mg/min in data set [1] (12.5 µM); 2.40 ± 0.15 µmol/mg/min in data set [1] (25 µM); 2.58 ± 0.03 µmol/mg/min in data set [2] (12.5 µM); 2.56 ± 0.02 µmol/mg/min in data set [2] (25 µM); 3.77 ± 0.28 µmol/mg/min in data set [4] (12.5 µM); 3.78 ± 0.28 µmol/mg/min in data set [4] (25 µM). For the same molecule, the “p-nitrophenol glucuronidation, % of Control” value came out at 102.19 ± 2.82% in data set [1] (12.5 µM); 95.72 ± 2.42% in data set [1] (25 µM); 98.32 ± 3.38% in data set [2] (12.5 µM); 97.79 ± 2.87% in data set [2] (25 µM); 93.15 ± 4.58% in data set [4] (12.5 µM); 93.30 ± 4.13% in data set [4] (25 µM). For the same molecule, the CYP3A catalytic activity in data set [3] (12.5 µM) is 0.59 ± 0.04 nmol/mg/min; in data set [3] (25 µM), 0.60 ± 0.06 nmol/mg/min; in data set [5] (12.5 µM), 0.41 ± 0.02 nmol/mg/min; in data set [5] (25 µM), 0.40 ± 0.03 nmol/mg/min; in data set [6] (12.5 µM) it was 0.71 ± 0.03 nmol/mg/min; in data set [6] (25 µM), 0.70 ± 0.03 nmol/mg/min. Besides, the results for the activity at 30 min, 12.5 µM in data set [3] (12.5 µM), in data set [5] (12.5 µM) and in data set [6] (12.5 µM) were 98.3 ± 3.1%, 106 ± 1.42% and 101 ± 2.7%, respectively. The activity at 30 min, 25 µM in data set [3] (25 µM) was determined as 99.3 ± 1%; in data set [5] (25 µM), 103 ± 6.11%; in data set [6] (25 µM), 99.64 ± 0.93%.

Turning to `O=C(O)C1C2C=CC(C2)C1C(=O)O` (stereo not drawn) [5-norbornen-2-endo-3-exo-dicarboxylic acid], the p-nitrophenol glucuronidation activity was 2.23 ± 0.09 µmol/mg/min in data set [1] (12.5 µM); 2.23 ± 0.10 µmol/mg/min in data set [1] (25 µM); 2.85 ± 0.16 µmol/mg/min in data set [2] (12.5 µM); 2.92 ± 0.19 µmol/mg/min in data set [2] (25 µM); 3.90 ± 0.23 µmol/mg/min in data set [4] (12.5 µM); 3.91 ± 0.20 µmol/mg/min in data set [4] (25 µM). For the same molecule, the “p-nitrophenol glucuronidation, % of Control” value was determined as 107.16 ± 4.97% in data set [1] (12.5 µM); 107.42 ± 3.63% in data set [1] (25 µM); 96.42 ± 1.23% in data set [2] (12.5 µM); 98.52 ± 2.14% in data set [2] (25 µM); 100.53 ± 2.09% in data set [4] (12.5 µM); 100.86 ± 1.90% in data set [4] (25 µM). For the same molecule, the CYP3A catalytic activity in data set [3] (12.5 µM) was determined as 0.65 ± 0.10 nmol/mg/min; in data set [3] (25 µM), 0.64 ± 0.09 nmol/mg/min; in data set [5] (12.5 µM), 0.39 ± 0.03 nmol/mg/min; in data set [5] (25 µM) it was 0.38 ± 0.02 nmol/mg/min; in data set [6] (12.5 µM), 0.73 ± 0.04 nmol/mg/min; in data set [6] (25 µM), 0.77 ± 0.03 nmol/mg/min. In addition, the “CYP3A catalytic activity, % of Control” value in data set [3] (12.5 µM) was 107.52 ± 3.84%; in data set [3] (25 µM), 105.30 ± 2.08%; in data set [5] (12.5 µM), 98.90 ± 0.73%; in data set [5] (25 µM), 95.23 ± 3.85%; in data set [6] (12.5 µM) it was 96.48 ± 0.72%; in data set [6] (25 µM), 101.88 ± 0.75%.
